# In patent publication US10253007B2, “Taxanes compounds, preparation method therefor, and uses thereof” (Jiangsu Tasly Diyi Pharmaceutical Co., Ltd., priority 2013, dated 2019):
# Legend:
# [1] = reported value for paclitaxel; cited from earlier work
# [2] = test system: breast cancer cell line MCF-7; test: IC50 values on breast cancer cell line MCF-7; format: cell-based; conditions: Homo sapiens, MCF7, 72 h, MCF-7; exposure 72 hours; mean±SD of three independent experiments; read-out: MCF-7(IC50)
# Excerpt: From the activity evaluation data of the above-mentioned preliminary screen, it can be seen that the series of taxanes derivatives synthesized in the present invention have activity (although the activity of PCMI-43 is weakened). Afterward, most of the compounds are picked up from these derivatives to examine their IC50 values on breast cancer cell line MCF-7. Paclitaxel is used as the positive control drug. Experiments for each compound were independently repeated for three times and multiple holes were used in each experiment. The exposure time of drugs was 72 hours.
# Caco-2 cell monolayer = conditions: human
# Excerpt: (§3) Caco-2 Cell Monolayer Membrane Transport Assay
# (§4) Human-derived colorectal adenocarcinoma cell line Caco-2 cell monolayer model was used to study the bidirectional transport of the target compounds from the apical (AP) side to the basolateral (BL) side and from BL side to AP side. HPLC was used for quantitative analysis to calculate transport parameters, apparent permeability coefficient (Papp) and the efflux ratio.
# [3] = MTT assay, proliferation inhibition; format: cell-based; conditions: Homo sapiens, LN-18 gastric cancer, read-out: Proliferation inhibition rate
# Excerpt: (§1) 1. Cytotoxicity Assay Using Human Tumor Cell Lines
# (§2) Paclitaxel was used as the positive drug.
# A2780 ovarian cancer = test: MTT assay, proliferation inhibition; format: cell-based; conditions: Homo sapiens, read-out: Proliferation inhibition rate
# Excerpt: as §1, §2
# BGC-823 gastric cancer = test: MTT assay, proliferation inhibition; format: cell-based; conditions: Homo sapiens, read-out: Proliferation inhibition rate
# Excerpt: as §1, §2
# HCT 116 colon cancer = test: MTT assay, proliferation inhibition; format: cell-based; conditions: Homo sapiens, read-out: Proliferation inhibition rate
# Excerpt: as §1, §2
# DU145 prostate cancer = test: MTT assay, proliferation inhibition; format: cell-based; conditions: Homo sapiens, DU-145, read-out: Proliferation inhibition rate
# Excerpt: as §1, §2
# K562 leukemia = test: MTT assay, proliferation inhibition; format: cell-based; conditions: Homo sapiens, read-out: Proliferation inhibition rate
# Excerpt: as §1, §2
# A375 melanoma = test: MTT assay, proliferation inhibition; format: cell-based; conditions: Homo sapiens, A-375, read-out: Proliferation inhibition rate
# Excerpt: as §1, §2
# HL60 leukemia = test: MTT assay, proliferation inhibition; format: cell-based; conditions: Homo sapiens, HL-60, read-out: Proliferation inhibition rate
# Excerpt: as §1, §2
# MCF-7 breast cancer = test: MTT assay, proliferation inhibition; format: cell-based; conditions: Homo sapiens, MCF7, read-out: Proliferation inhibition rate
# Excerpt: as §1, §2
# HT29 colon cancer = test: MTT assay, proliferation inhibition; format: cell-based; conditions: Homo sapiens, HT-29, read-out: Proliferation inhibition rate
# Excerpt: as §1, §2
# LNCaP prostate cancer = test: MTT assay, proliferation inhibition; format: cell-based; conditions: Homo sapiens, read-out: Proliferation inhibition rate
# Excerpt: as §1, §2
# MDA-MB-436 breast cancer = test: MTT assay, proliferation inhibition; format: cell-based; conditions: Homo sapiens, read-out: Proliferation inhibition rate
# Excerpt: as §1, §2
# HeLa cervical cancer = test: MTT assay, proliferation inhibition; format: cell-based; conditions: Homo sapiens, read-out: Proliferation inhibition rate
# Excerpt: as §1, §2
# B16 melanoma = test: MTT assay, proliferation inhibition; format: cell-based; conditions: read-out: Proliferation inhibition rate
# Excerpt: as §1, §2
# [4] = test system: A549 non-small cell lung cancer; test: MTT assay, proliferation inhibition; format: cell-based; conditions: Homo sapiens, read-out: Proliferation inhibition rate
# Excerpt: as §1, §2
# [5] = test system: NCI-H460 non-small cell lung cancer; test: MTT assay, proliferation inhibition; format: cell-based; conditions: Homo sapiens, read-out: Proliferation inhibition rate
# Excerpt: as §1, §2
# in vitro = conditions: human, Caco-2, Papp A-B, Mean
# Excerpt: as §3, §4
smiles,measurement,setting,value
"CC(=O)O[C@H]1C(=O)[C@@]2(C)[C@H]([C@H](OC(=O)c3ccccc3)[C@]3(O)C[C@H](OC(=O)[C@H](O)[C@@H](NC(=O)c4ccccc4)c4ccccc4)C(C)=C1C3(C)C)[C@]1(OC(C)=O)CO[C@@H]1C[C@@H]2O [Paclitaxel, reference compound]",reported absolute oral bioavailability,[1],less than 5%
same,IC50,[2],~7.05 nM
same,Papp A-B,Caco-2 cell monolayer,0.97 10^−6 cm/s
same,Papp B-A,Caco-2 cell monolayer,33.39 10^−6 cm/s
same,efflux ratio,Caco-2 cell monolayer,34.38
same,inhibition at 1 µM,[3],94.5%
same,inhibition at 1 µM,A2780 ovarian cancer,96.7%
same,inhibition at 1 µM,BGC-823 gastric cancer,92.5%
same,inhibition at 1 µM,HCT 116 colon cancer,70.4%
same,inhibition at 1 µM,DU145 prostate cancer,90.6%
same,inhibition at 1 µM,K562 leukemia,96.6%
same,inhibition at 1 µM,A375 melanoma,96.2%
same,inhibition at 1 µM,HL60 leukemia,96.8%
same,inhibition at 1 µM,MCF-7 breast cancer,94.2%
same,inhibition at 1 µM,HT29 colon cancer,88.4%
same,inhibition at 1 µM,LNCaP prostate cancer,87.1%
same,inhibition at 1 µM,MDA-MB-436 breast cancer,83.1%
same,inhibition at 1 µM,HeLa cervical cancer,101%
same,inhibition at 1 µM,B16 melanoma,84%
same,inhibition at 1 µM,[4],81.6%
same,inhibition at 1 µM,[5],87.5%
same,Papp A→B,in vitro,0.97 ×10⁻⁶ cm/s
